# ChEMBL document CHEMBL1799989 (Bioorg Med Chem Lett, 2011)
# Where “and” joins values, the source holds several entries; their conditions need not be identical. Equal entries are not always repeated.
# Tests used:
# [1] = biological target: Mitogen-activated protein kinase 14 (Homo sapiens, UniProt Q16539); test: Inhibition of p38alpha assessed as phosphorylation FITC-labeled Hsp27 after 60 mins by fluorescence based cascade assay
# [2] = (§1) Metabolic stability in rat liver microsomes assessed as compound remaining at 2 uM after 45 mins by LC/MS analysis in presence of NADPH; type: ADME, Microsome; details: liver microsomes, read-out: Stability
# PBMC = test: Antiinflammatory activity in human PBMC assessed as inhibition of LPS-induced TNFalpha release pretreated for 1 hr before LPS treatment measured after 18 hrs; type: functional, cell-based
# [3] = (§2) Metabolic stability in human liver microsomes assessed as compound remaining at 2 uM after 45 mins by LC/MS analysis in presence of NADPH; type: ADME, Microsome; details: liver microsomes, read-out: Stability
# Rattus norvegicus [4] = test: Antiinflammatory activity in fasted Lewis rat assessed as inhibition of LPS-induced TNFalpha production at 5 mg/kg, po administered 4 hrs prior LPS challenge measured after 90 mins by ELISA; type: functional; details: for inhibition in vivo at 5 mg/kg: Rattus norvegicus, Lewis, po
# Rattus norvegicus [5] = test: Antiarthritic activity in Lewis rat assessed as inhibition of streptococcal cell wall-induced paw swelling at 10 mg/kg/day, po administered on day 10 of streptococcal cell wall challenge continued until day 21 by plethysmometer; type: functional
# Rattus norvegicus [6] = test: Antiarthritic activity in Lewis rat assessed as inhibition of streptococcal cell wall-induced paw swelling at 60 mg/kg/day, po administered on day 10 of streptococcal cell wall challenge continued until day 21 by plethysmometer; type: functional
# Rattus norvegicus [7] = test: Antiarthritic activity in Lewis rat assessed as inhibition of streptococcal cell wall-induced paw swelling at 30 mg/kg/day, po administered on day 10 of streptococcal cell wall challenge continued until day 21 by plethysmometer; type: functional
# Liver microsomes [8] = test: as §1; type: ADME, Microsome; details: microsomes, 0.75 h, 2 µM
# Liver microsomes [9] = test: as §2; type: ADME, Microsome; details: microsomes, 0.75 h, 2 µM
# Rattus norvegicus [10] = test: Antiarthritic activity in Lewis rat assessed as inhibition of streptococcal cell wall-induced paw swelling at 2 mg/kg/day, po administered on day 10 of streptococcal cell wall challenge continued until day 21 by plethysmometer; type: functional
# [11] = Solubility of the compound in phosphate buffer at pH 7; type: physicochemical
# [12] = Apparent permeability across apical to basolateral side in human Caco2 cells at 1 uM; type: ADME, cell-based; details: Caco-2
# [13] = Apparent permeability across apical to basolateral side in human Caco2 cells at 100 uM; type: ADME, cell-based; details: Caco-2
# [14] = Half life in Sprague-Dawley rat administered as crystalline form; type: ADME, organism-based; details: in vivo
# [15] = Half life in Beagle dog administered as crystalline form; type: ADME, organism-based, Canis lupus familiaris; details: in vivo
# [16] = Half life in cynomolgus monkey administered as crystalline form; type: ADME, organism-based, Macaca fascicularis; details: in vivo
# [17] = Oral bioavailability in cynomolgus monkey administered as crystalline form; type: ADME, organism-based, Macaca fascicularis; details: in vivo
# [18] = Oral bioavailability in Sprague-Dawley rat administered as crystalline form; type: ADME, organism-based; details: in vivo
# [19] = Oral bioavailability in cynomolgus monkey administered as solution; type: ADME, organism-based, Macaca fascicularis; details: in vivo
# [20] = Oral bioavailability in Beagle dog administered as solution; type: ADME, organism-based, Canis lupus familiaris; details: in vivo
# [21] = Oral bioavailability in Sprague-Dawley rat at 15 mg/kg administered as solution; type: ADME, organism-based; details: in vivo
# [22] = Oral bioavailability in Sprague-Dawley rat at 2 mg/kg administered as solution; type: ADME, organism-based; details: in vivo
# Mitogen-activated protein kinase 14, sequence (Q16539 whole entry): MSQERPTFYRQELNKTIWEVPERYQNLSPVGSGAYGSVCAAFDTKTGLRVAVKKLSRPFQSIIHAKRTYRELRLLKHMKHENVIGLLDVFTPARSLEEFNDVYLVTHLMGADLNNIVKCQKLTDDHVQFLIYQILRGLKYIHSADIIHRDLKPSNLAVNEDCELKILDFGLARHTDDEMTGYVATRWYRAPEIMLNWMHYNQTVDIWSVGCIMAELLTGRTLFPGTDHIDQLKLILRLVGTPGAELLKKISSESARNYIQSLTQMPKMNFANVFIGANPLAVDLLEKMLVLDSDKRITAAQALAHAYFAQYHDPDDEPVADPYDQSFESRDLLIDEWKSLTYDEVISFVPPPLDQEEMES
IC50 [1] [µM],"remaining at 0.75 h, 2 µM [2] [%]","remaining at 0.75 h, 2 µM [3] [%]",Compound,"IC50 (PBMC; Homo sapiens, PBMC) [µM]",inhibition in vivo at 5 mg/kg (Rattus norvegicus [4]) [%],also measured
0.034,86,93,CNC(=O)c1ccc(-n2c(C)cc(OCc3ccc(F)cc3F)c(Br)c2=O)c(C)c1,0.156,54,–
0.0085,–,–,CNC(=O)c1ccc(F)c(-n2c(C)cc(OCc3ccc(F)cc3F)c(Br)c2=O)c1,0.046,83,–
0.003,–,–,CNC(=O)c1ccc(Cl)c(-n2c(C)cc(OCc3ccc(F)cc3F)c(Br)c2=O)c1,0.018,89,inhibition in vivo at 30 mg/kg/day (Rattus norvegicus [7]): 90%
0.021,–,–,CNC(=O)c1ccc(OC)c(-n2c(C)cc(OCc3ccc(F)cc3F)c(Br)c2=O)c1,0.107,20,–
–,95,91,CNC(=O)c1ccc(C)c(-n2c(C)cc(OCc3ccc(F)cc3F)c(Br)c2=O)c1 [PH-797804],–,–,Stability (Liver microsomes [8]): 100%; IC50 (PBMC; pbmc): 0.015 µM and 0.0034 µM; Stability (Liver microsomes [9]): 98% and 92%; inhibition (INH) (Rattus norvegicus [4]; 5 mg/kg): 95% and 38%; inhibition in vivo at 2 mg/kg/day (Rattus norvegicus [10]): 80%; solubility [11]: < 5 µg/mL; Papp A→B at 1 µM [12]: 10 ×10⁻⁶ cm/s; Papp A→B at 100 µM [13]: 25 ×10⁻⁶ cm/s; half-life [14]: 2.6 h; half-life [15]: 11.4 h; half-life [16]: 3.93 h; bioavailability [17]: 23.2%; bioavailability [18]: 35.7%; bioavailability [19]: 36.2%; bioavailability [20]: 59.6%; bioavailability [21]: 80.4%; bioavailability [22]: > 100%

# The remaining lines, values behind:
Compound,IC50 [1] [µM],"remaining at 0.75 h, 2 µM [2] [%]","remaining at 0.75 h, 2 µM [3] [%]","IC50 (PBMC; Homo sapiens, PBMC) [µM]",inhibition in vivo at 5 mg/kg (Rattus norvegicus [4]) [%],also measured
Cc1ccc(C(N)=O)cc1-n1c(C)cc(OCc2ccc(F)cc2F)c(Br)c1=O,0.002,100,84,0.0025,98,inhibition in vivo at 10 mg/kg/day (Rattus norvegicus [5]): 87%
Cc1ccc(C(=O)N(C)C)cc1-n1c(C)cc(OCc2ccc(F)cc2F)c(Br)c1=O,0.0095,71,75,0.0285,96,inhibition in vivo at 60 mg/kg/day (Rattus norvegicus [6]): 74%
CNC(=O)c1cccc(-n2c(C)cc(OCc3ccc(F)cc3F)c(Br)c2=O)c1C,0.0485,91,89,0.193,61,–
CNC(=O)c1ccc(C(=O)O)c(-n2c(C)cc(OCc3ccc(F)cc3F)c(Br)c2=O)c1,> 10,–,–,> 25,–,–
CNC(=O)c1ccc(CO)c(-n2c(C)cc(OCc3ccc(F)cc3F)c(Br)c2=O)c1,0.325,–,–,–,–,–
CNC(=O)c1ccc(C)c(-n2c(CO)cc(OCc3ccc(F)cc3F)c(Br)c2=O)c1,0.004,–,–,0.016,1,–
